Test results: patent publication US5202456A, “Compounds for inhibition of protein methylation” (The President and Fellows of Harvard College, priority 1991, dated 1993)
“Also recorded” adds a separate entry of the source. Like-named read-outs stand apart in the source and are kept apart here.

Columns and labels:
[1] = target: T1, ROS methyltransferase (bovine retinal rod outer segment S-adenosyl-L-methionine-dependent methyltransferase) (Bos taurus, UniProt A0AAA9SD88); assay: ROS methyltransferase assay: compounds as substrates (Km) or inhibitors (Ki) of AFC methylation; format: biochemical; details: for substrate activity for ROS methyltransferase / competitive inhibition of AFC methylation / inhibition of methyltransferase activity towards AFC: in words
T1 construct: utilizing ROS membranes as the source of methyltransferase enzyme; tissue Wanda Lawson Co., Lincoln, Nebr; (frozen bovine retinas); host or cells: bovine retinal rod outer segment (ROS) membranes
T1 sequence (A0AAA9SD88 1-284): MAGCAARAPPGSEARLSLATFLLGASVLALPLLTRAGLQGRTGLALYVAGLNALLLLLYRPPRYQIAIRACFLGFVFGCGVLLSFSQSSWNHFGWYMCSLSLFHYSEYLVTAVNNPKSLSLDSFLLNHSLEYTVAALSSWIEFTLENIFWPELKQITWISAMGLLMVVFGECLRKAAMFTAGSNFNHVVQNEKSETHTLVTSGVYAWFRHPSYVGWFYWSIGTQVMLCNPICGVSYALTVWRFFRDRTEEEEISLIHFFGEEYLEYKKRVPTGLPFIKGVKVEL
Method: Standard assays may be used to determine Km for substrates and Ki for inhibitors. […] The values of Ki and Km are calculated from kinetic assays by conventional means (Fersht, Enzyme Structure and Mechanism, W. H. Freeman and Co., New York, 1984). Examples are provided below to illustrate suitable assays, and are not intended to limit the invention.
One suitable assay of methylation functions uses bovine retinal rod outer segment (ROS) methyltransferase and a natural substrate, transducin. […] Another suitable assay uses N-acetyl-S-farnesylcysteine as a substrate for ROS methyltransferase.
The bovine retinal transducin γ subunit has a carboxyl-terminal --CAAX motif and undergoes a farnesylation reaction similar to that observed on ras (Lai et al., Proc. Natl. Acad. Sci. USA 87:7673, 1990; Fukada et al., Nature 346:658, 1990).
(§1) Frozen bovine retinas (Wanda Lawson Co., Lincoln, Nebr.) were used to prepare ROS membranes depleted of peripheral proteins using a modification of the procedure of Wessling-Resnick et al. (J. Biol. Chem. 262:3697, 1987). Briefly, ROS membranes were washed with low ionic strength buffer and 100μM GTP, resuspended in 50 mM Hepes-Na (pH 7.4), 100 mM NaCl, 5 mM MgCl2, 0.1 mM phenylmethylsulfonyl fluoride, 0.1 mM dithiothreitol (buffer A) and stored in small aliquots at -80° C. until used. Transducin was isolated by disrupting ROS membranes by passing the membranes through a narrow needle and washing the disrupted membranes in a series of centrifugation steps as described by Wessling-Resnick et al. (J. Biol. Chem. 262:3697, 1987). Finally transducin was eluted from the membranes with 100μM GTP. The transducin-enriched supernatant was concentrated using Centriprep (Amicon).
(§2) For initial studies, the reaction mixture contained 20 μCi of S-adenosyl-[methyl-^3 H] methionine ([^3 H]SAM) (2.34 μM, Amersham) and an aliquot of ROS (120μg of total protein) or of washed ROS membranes (80μg of total protein) in 100 μl of buffer A. Purified transducin was added to this mixture to a concentration of 5 μM. AFC, N-acetylcysteine, or AFC methylester was added in 2 μl of dimethyl sulfoxide to give a final concentration of 20 μM, and the reaction was carried out at 37° C.
The above-described methyltransferase assay was used to analyze the analogs described above.

[2] = test system: methyltransferase activity in HL-60 cells; assay: Methylation of AFC by activity present in HL-60 cell membrane; format: biochemical; details: in words
HL-60 cells = assay: Inhibition of HL-60 cell proliferation (trypan blue dye exclusion count); format: cell-based; details: FIG. 2; in words
Method: FTA, FTP, AFHC and AFC were tested for their ability to inhibit cell growth as follows.
HL-60 cells (ATCC CCL 240, American Type Culture Collection, Rockville, Md.) which harbor an activated ras gene were grown in RPMI medium (Gibco/BRL, Bethesda, Md.) supplemented with 10-15% fetal calf serum, L-glutamine, penicillin and streptomycin. These cells were treated with various concentrations of FTA, FTP, AFHC, or AFC dissolved in dimethyl sulfoxide (DMSO) or with DMSO only (In all experiments the final DMSO concentration was 1% or less). Treated ans untreated cells were incubated under standard culture conditions for several days. Cells were counted manually at 24 hour intervals using a trypan blue dye exclusion assay which counts only live, intact cells.

[3] = target: T2, methyltransferase activity present in ROS membrane (Bos taurus, UniProt A0AAA9SD88); assay: In vitro [3H]SAM methylation of proteins by ROS membrane methyltransferase; format: biochemical, bovine; details: in words
T2 construct: substrates transducin gamma, 23-29 kDa small G proteins, AFC
T2 sequence (A0AAA9SD88 1-284): as above
Method: as §1, §2
Incubation of bovine ROS with [^3 H]SAM results in the radioactive labeling of polypeptides with apparent molecular masses of 88, 60, 23-29, and 6 kDa. The methylation of the 88-kDa protein (α subunit of retinal phosphodiesterase) and of the 23- to 29-kDa polypeptides has already been reported (Swanson et al., J. Biol. Chem. 258:10599, 1983; Ota et al., J. Biol. Chem. 264:12879, 1989). The 6-kDa polypeptide coincides with Tγ in SDS/polyacrylamide gels. Moreover, incubation of purified transducin with extensively washed ROS and [^3 H]SAM results in the labeling of the 6-kDa polypeptide and the membrane-associated 23- to 29-kDa proteins. […]

[4] = test system: cellular synthesis of mevalonic acid; details: in words; cited from earlier work
ras proteins = details: Hancock et al., 1989; cited from earlier work
cell growth = details: Maltese et al., 1985; cited from earlier work
[5] = Table 1, conventional inhibitors, read-out: Ki
[6] = Table 1, substrates, read-out: Km
[7] = ROS membranes as source of enzyme, read-out: KM for methylation
[8] = calculated, read-out: Ki for inhibition of AFC methylation

With `CC(C)=CCC/C(C)=C/CC/C(C)=C/C[Se]CCC(=O)O` the Ki [1] was 29 µM.

In the case of “3-farnesylthiocyclohexanecarboxylic acid”, the “status as conventional inhibitor (in place of Ki)” value (from here on “status as conventional inhibitor”) ([1]; Table 1) is reported as “inhibitor”.

For `CC(=O)NC(C[Se]C/C=C(\C)CC/C=C(\C)CCC=C(C)C)C(=O)O` (racemic) [N-acetyl-Se-farnesyl-D,L-cysteine], the Km ([1]; Table 1, substrates) was 51 µM.

With `CC(C)=CCC/C(C)=C/CC/C(C)=C/CSCC[N+](=O)[O-]` [2-farnesylthio-1-nitroethane] the “status as conventional inhibitor” value ([1]; Table 1) was “inhibitor”.

For `CSC(CSC/C=C(\C)CC/C=C(\C)CCC=C(C)C)=NO` [2-farnesylthio-S-methyl], the “status as conventional inhibitor” value ([1]; Table 1) was “inhibitor”.

`CC(C)=CCC/C(C)=C/CC/C(C)=C/C[S+]([O-])CC(=O)O` (stereo not drawn) [2-farnesylthioacetic acid sulfoxide] gave a Ki [1, 5] of less than 10 µM.

For `CC(C)=CCC/C(C)=C/CC/C(C)=C/CSCC(C)C(=O)O` (stereo not drawn) [2-methyl-3-farnesylthiopropionic acid], the Km [1, 6] was 21 µM.

With `CC(C)=CCC/C(C)=C/CC/C(C)=C/COCCC(=O)O` [3-farnesyloxypropionic acid] the Km [1, 6] was 26 µM.

For `C=C(CSC/C=C(\C)CC/C=C(\C)CCC=C(C)C)C(=O)O` [3-farnesylthio-2-methylenepropionic acid], the “status as substrate (in place of Km)” value ([1]; Table 1) was “substrate”.

In the case of `CC(C)=CCC/C(C)=C/CC/C(C)=C/CSCC(C)[N+](=O)[O-]` (stereo not drawn) [3-farnesylthio-2-nitropropane], the “status as conventional inhibitor” value ([1]; Table 1) is reported as “inhibitor”.

For `CC(C)=CCC/C(C)=C/CC/C(C)=C/CS/C=C\C(=O)O` [3-farnesylthio-cis-acrylic acid], the Ki [1, 5] was 40 µM.

In the case of `CC(C)=CCC/C(C)=C/CC/C(C)=C/CS/C=C/C(=O)O` [3-farnesylthio-trans-acrylic acid], the Ki [1, 5] is reported as 37 µM.

In the case of `CC(C)=CCC/C(C)=C/CC/C(C)=C/CSC(C)CC(=O)O` (stereo not drawn) [3-farnesylthiobutyric acid], the Ki [1, 5] is reported as 30 to 40 µM.

With `CCCCCCC(CC(=O)O)SC/C=C(\C)CC/C=C(\C)CCC=C(C)C` (stereo not drawn) [3-farnesylthiononanoic acid] the “status as conventional inhibitor” value ([1]; Table 1) was “inhibitor”.

With `CC(C)=CCC/C(C)=C/CC/C(C)=C/CSCCC(N)=O` [3-farnesylthiopropionamide] the “status as conventional inhibitor” value ([1]; Table 1) was “inhibitor”.

In the case of `CC(C)=CCC/C(C)=C/CC/C(C)=C/CSCCC#N` [3-farnesylthiopropionitrile], the “status as conventional inhibitor” value ([1]; Table 1) is reported as “inhibitor”.

For `CC(=O)N[C@@H](CSC/C=C(\C)CC/C=C(\C)CCC=C(C)C)C(=O)O` [AFC, N-acetyl-S-farnesylcysteine], the “methylation by activity in membrane of HL-60 cells” value [2] was “can be methylated”, the “inhibition of proliferation of HL-60 cells” value (shortened to “inhibition … of HL-60 cells”) (HL-60 cells) was “can inhibit proliferation” and the Km [1, 7] was 23 µM. The Km [1, 6] was 23 µM, the “substrate activity for ROS methyltransferase” value (shortened to “substrate activity”) [1] was “acts as a substrate; also recorded: serves as a substrate; also recorded: can serve as a substrate” and the “incorporation of label by [3H]SAM into proteins” value ([3]; ROS) was “reduced incorporation of label”.

In the case of `CC(=O)N[C@@H](C[S+]([O-])C/C=C(\C)CC/C=C(\C)CCC=C(C)C)C(=O)O` (stereo partly drawn) [AFCS, N-acetyl-S-oxo-farnesylcysteine], the Ki [1, 5] is reported as 13.2 µM, the Ki [1, 8] is reported as 11.6 µM and the “methylation of AFCS” value ([1]; even at 500 μM) is reported as “not methylated”. The “competitive inhibition of AFC methylation” value [1] was “potent competitive inhibitors” and the “substrate activity” value [1] was “lack of activity; also recorded: not substrates”.

In the case of `CC(=O)N[C@@H](CCSC/C=C(\C)CC/C=C(\C)CCC=C(C)C)C(=O)O` [AFHC, N-acetyl-S-farnesylhomocysteine], the “inhibition … of HL-60 cells” value (HL-60 cells) is reported as “can inhibit proliferation”, the Ki [1, 5] is reported as 36.3 µM and the Ki [1, 8] is reported as 30.2 µM. The “competitive inhibition of AFC methylation” value [1] was “potent competitive inhibitors” and the “substrate activity” value [1] was “not a substrate; also recorded: not substrates”.

In the case of `CC(=O)N[C@@H](CSC/C=C(\C)CCC=C(C)C)C(=O)O` [AGC, N-acetyl-S-geranyl-L-cysteine], the “status as substrate (in place of Km)” value ([1]; Table 1) is reported as “substrate” and the “substrate activity” value [1] is reported as “exceedingly weak substrate; also recorded: marginal activity”.

For `CC(=O)N[C@@H](CSCCC(C)CCCC(C)CCCC(C)C)C(=O)O` (stereo partly drawn) [ATC, N-acetyl-S-(3,7,11-trimethyldodecanyl)-L-cysteine], the “substrate activity” value [1] was “inactive as a substrate; also recorded: lack of activity”.

For `C[S+](CC[C@H](N)C(=O)O)C[C@H]1O[C@@H](n2cnc3c(N)ncnc32)[C@H](O)[C@@H]1O` (stereo partly drawn) [AdoMet, S-adenosyl-L-methionine, reference compound], the Km ([1]; AFC system, ROS membranes, read-out: apparent KM) was 2 µM.

For `CC(C)=CCC/C(C)=C/CC/C(C)=C/CSCCC(=O)O` [FTP, 3-farnesylthiopropionic acid], the “inhibition … of HL-60 cells” value (HL-60 cells) was “can inhibit proliferation”, the Km [1, 7] was 13.7 µM and the Km [1, 6] was 14 µM. For the same molecule, the “substrate activity” value [1] was “active substrate; also recorded: also a substrate”.

For `CC[C@H](C)C(=O)O[C@H]1C[C@@H](C)C=C2C=C[C@H](C)[C@H](CC[C@@H]3C[C@@H](O)CC(=O)O3)[C@H]21` [Mevinolin], the “cellular synthesis of mevalonic acid” value [4] is given as “inhibits”, the “post-translational processing of ras proteins” value (ras proteins) is given as “affects” and the ras membrane localization (ras proteins) is given as “interferes”. The cell growth block (cell growth) was “blocked in cell growth in the G1 phase and the G2/M phase”.

Molecule `CC(=O)N[C@H](CSC/C=C(\C)CC/C=C(\C)CCC=C(C)C)C(=O)O` [N-acetyl-S-farnesyl-D-cysteine] has a Km [1, 6] of 42 µM.

For `CC(=O)N[C@@H](CS)C(=O)O` [N-acetylcysteine, reference compound], the “substrate activity” value [1] was “not a substrate”.

With `CC(C)=CCC/C(C)=C/CC/C(C)=C/CSC[C@H](NC(=O)c1ccccc1)C(=O)O` [N-benzoyl-S-farnesylcysteine] the “status as substrate (in place of Km)” value ([1]; Table 1) was “substrate”.

With `CC(C)=CCC/C(C)=C/CC/C(C)=C/CSCC(N)C(=O)O` (stereo not drawn) [S-farnesylcysteine] the “status as conventional inhibitor” value ([1]; Table 1) was “inhibitor”.

In the case of `Nc1ncnc2c1ncn2[C@@H]1O[C@H](CSCC[C@H](N)C(=O)O)[C@@H](O)[C@H]1O` [SAH, reference compound], the “inhibition of methyltransferase activity towards AFC” value [1] is reported as “inhibited” and the “inhibition of methyltransferase activity present in ROS membrane” value [3] is reported as “inhibited”.

With `Nc1ncnc2c1ncn2[C@@H]1O[C@H](C[C@@H](N)CC[C@H](N)C(=O)O)[C@@H](O)[C@H]1O` [sinefungin, reference compound] the “inhibition of methyltransferase activity towards AFC” value [1] was “inhibited” and the “inhibition of methyltransferase activity present in ROS membrane” value [3] was “inhibited”.

With N-acetylgeranylgeranylcysteine the “status as substrate (in place of Km)” value ([1]; Table 1) was “substrate”.

For disodium 2-farnesylthioethyl phosphate, the “status as conventional inhibitor” value ([1]; Table 1) was “inhibitor”.
